Tests used:
PC3 cells = test: MTT viability drug interaction study, Chou-Talalay method; assay type: cell-based; details: low doses of SB290157 with docetaxel
Method: (§1) Significance was determined by repeated measures ANOVA.
Statistical analysis: Experiments were done a minimum of three times. Results were shown in terms of mean ± S.D. Student’s t-test and one-way ANOVA were used for comparisons among groups and repeated measured ANOVA was applied for determining the significance of two or more data series. Statistical tests utilized are reported in the figure legends, along with the associated P values was performed by using Origin software (OriginLab, Northampton, MA). Cell viability was examined by using MTT assay as indicated by the manufacturer (Thermo Fisher, Canoga Park, CA) for the calculation of synergistic drug interactions was performed by Chou-Talalay method (R Package).

PC3 and CAF co-culture = test: 3D organotypic co-culture of PC3 and CAF, EpCAM+/Ki67+ FACS; assay type: cell-based; details: PC3 and CAF 3D co-culture, 48 hours
Method: as §1
3D organotypic co-culture: 3D organotypic co-culture was performed in a collagen matrix. PC3 and CAF were combined in a 1:3 ratio in collagen matrix contain 50% rat tail collagen I, 20% of matrigel, 10% of 10x DMEM medium and 1x ready DMEM 5%, 1x ready RPMI 5%, FBS 5% and Nu serum 5%. Cells were treated with docetaxel and SB290157 for 48 hours after 72 hours of expansion in the matrix. The cells were dissociated from the matrix with collagenase and dispase for Ki67 FACS analysis.

[1] = test system: xenografts of CAF and PC3 cells; test: Subcutaneous xenograft of PC3 and CAF in male nude mice
Text: A Subcutaneous xenografts of PC3 and CAF tumor volumes were longitudinally measured. […] Representative images show each group of mice (inset). […] C Immunolocalization ofphosphorylated-TAK1, complement C3, phosphorylated-AKT, phosphorylated-histoneH3 and TUNEL expression in tumor tissues (brown) was counterstained with hematoxylin (blue). The corresponding bar graph illustrate the mean and S.D. expression of the respective staining (n=5). Data represent the mean ± S.D. by one-way ANOVA (*P <0.05; **P <0.01). The scale bar represents 10 µm.
Data represent the mean ± S.D. among groups by oneway ANOVA (ns - not significant). C H&E images of resulting tumors from each treatment group of subcutaneous xenografted mice.
Animal experiments and cultured cells: Male C57BL/6 mice aged 7-8 weeks were housed in a pathogen-free environment at the Cedars-Sinai Medical Center Animal Facility under the approval of the Institutional Animal Care and Use Committee (# 3679). Sub-renal capsule was performed with wild type mouse fibroblasts (6×10^5) or TLR9^-/- mouse fibroblasts (6×10^5) combining with mouse prostate epithelial cell TRAMP-C2 (2×10^5) . Treatment with SB290157 (1 mg/kg; i.p. daily) was started after two weeks of grafting and continued for five weeks. All mouse kidney, spleen, lymph nodes were harvested after five weeks of treatment were fixed in paraffin embedded for IHC or dissociated for FACS analysis. Subcutaneous xenograft was done in male nude mice aged 7-8 weeks in combination of PC3 (5×10^5) and CAF (15×10^5). […] Harvested tissues were fixed in paraffin embedded for IHC or dissociated for immunoblot analysis.
Immunodetection: Paraffin embedded tissue were processed for Immunohistochemical localization was performed with antibodies against p-AKT, p-TAK, p-histoneH3 (Cell Signaling, Danvers, MA), C3 (Santa Cruz Biotechnology, Santa Cruz, CA), and TUNEL (Thermo Fisher Scientific Inc.) as previously described before (52, 53). All the slides were scanned using Leica SCN400 (Leica Micro System, Buffalo Grove, IL) and analyzed by Tissue IA Optimizer (Leica). The values of positively stained cells were measured in an unbiased manner. C3a concentration of cultured medium and serum was assayed by sandwich ELISA using human C3a ELISA kit (BD Bioscience, San Jose, CA) according to the manufacturer’s instructions. Western blots separated by 10, 12, or 15% SDS-polyacrylamidegels were incubated with primary antibodies for TLR9, DEC205 (LS Bio Seattle, WA), phospho-TAK1, TAK1, phospho-AKT, AKT, phosphor-ERK1/2, ERK, BCL2, beclin, CHOP (Cell Signaling), LC3 (Abcam, Cambridge, MA), C3 (Santa Cruz Biotechnology) and p62 (ProgenBiotechnik, Heidelberg, Germany). Western blots were visualized using alkaline phosphatase-conjugated secondary antibodies (Sigma-Aldrich). The ELISA for anaphylatoxin C3a for performed according to manufacturer guidelines (LSBio Inc.).

[2] = test system: TRAMPC2 with wild type fibroblasts allografts; test: Sub-renal capsule allograft of TRAMPC2 with wild type fibroblasts in C57BL/6 mice; assay type: in vivo, mouse
Method: FIG. 3, panels A-E, depicts Role of C3a in PCa progression. A PCa cell lines incubated in the absence and presence of C3a receptor agonist peptide (48 hr) was western blotted for cell survival and proliferation protein expression. B C57BL/6 mice were allografted with tissue recombinants of luciferase-expressing TRAMPC2 with wild type (wt) or Tlr9^-/-fibroblasts. The mice were treated with saline or […], SB290157. Luciferase bioluminescence was used to image tumor progression. C Mean tumor volume (mm^3) and standard deviation (S.D.) for each treatment condition are depicted (n=8). D H&E and immunohistochemistry for phosphorylated-AKT, phosphorylated-histone-H3 and TUNEL staining of the tumor tissues were performed and quantitated. […] The scale bar represents 10 µm.
To validate the observation of C3a signaling, we allografted mouse prostatic fibroblasts with PCa epithelia into syngeneic C57B/6 mice. We grafted either wild type or TLR9-knockout fibroblasts and recombined them with luciferase-expressing TRAMPC2 cells under the renal capsule. After the tumors were visible by bioluminescent imaging, the mice were treated with either vehicle (control) or SB290157, a C3aR antagonist. […] We were only able to perform immunohistochemistry on the grafts with wild type fibroblasts and TRAMPC2, as not enough tissue was available from grafts with TLR9-knockout fibroblasts. […] The activation of AKT, localized by phosphorylated AKT staining, was elevated in the tumor cells of mouse allografted with wild type fibroblasts and reversed in SB290157 treated mice.
Complement anaphylatoxins have a wide spectrum of proinflammatory effects. C3a is particularly regarded for the chemotaxis of mast cells, basophils and eosinophils. As T lymphocytes are confirmed regulators of tumor progression and known to respond to C3a, we measured the impact of C3a antagonism on T cell recruitment to the tumors.

[3] = western blot, SB290157 with docetaxel

SMILES: NC(N)=NCCC[C@H](NC(=O)COCC(c1ccccc1)c1ccccc1)C(=O)O [SB290157]
- fractional inhibitory concentration index (PC3 cells): < 0.5
- EpCAM+/Ki67+ proliferative epithelial fraction (PC3 and CAF co-culture): restored the sensitivity of PC3 cells to docetaxel
- apoptosis (TUNEL) ([1]; SB290157 with docetaxel compared to docetaxel alone): did not result in greater apoptosis
- tumor growth ([1]; combined treatment of docetaxel (6 mg/kg/week) and SB290157 (1 mg/kg IP every day), P < 0.05): significantly limited tumor growth
- phosphorylation of AKT and phosphorylated histone-H3 (cell survival pathway and mitosis) ([1]; immunohistochemistry, combined treatment of docetaxel and SB290157 versus docetaxel): significantly diminished
- AKT and ERK1/2 phosphorylation in tumor tissues [1, 3]: reduced AKT and ERK1/2 phosphorylation
- Blc2 in tumor tissues [1, 3]: reduced
- tumor size ([2]; 1 mg/kg i.p. daily, versus vehicle treated mice): significantly smaller tumor size
- CD3+ T cells recruited to the tumors ([2]; FACS of tumor tissues): similarly recruited
- CD8+ T cell activation (CD69+ expression) ([2]; FACS of tumor tissues): appreciably downregulated
- activation of AKT (phosphorylated AKT staining) ([2]; immunohistochemistry of grafts): reversed
- cell death (TUNEL staining) ([2]; immunohistochemistry of grafts): elevate cell death
- tumor cell mitosis (phosphorylated-histone H3 expression), tumor proliferation ([2]; immunohistochemistry of grafts, 1 mg/kg i.p. daily, 1 mg/kg): significantly diminish tumor proliferation
- tumor cell mitosis (phosphorylated-histone H3 expression), tumor proliferation ([2]; immunohistochemistry of grafts, 1 mg/kg i.p. daily, listed as SB29157, 1 mg/kg): significantly lower

Source: patent US20230121867A1, “COMPOSITIONS AND METHODS FOR TREATING DISEASES AND CONDITIONS BY DEPLETION OF MITOCHONDRIAL OR GENOMIC DNA FROM CIRCULATION” (Cedars-Sinai Medical Center, priority 2019, published 2023)
